{
  "source": "the supplement of paper PMC10307832",
  "experiment_in_all_cases": "relative viability (nuclei count vs DMSO), 5 days (fraction); higher = more cells survive",
  "key": {"BAM7 + Pictilisib": {"compound": "CCOC1=CC=CC=C1N=NC2=C(NN(C2=O)C3=NC(=CS3)C4=CC=CC=C4)C [BAM7] + CS(=O)(=O)N1CCN(Cc2cc3nc(-c4cccc5[nH]ncc45)nc(N4CCOCC4)c3s2)CC1 [Pictilisib] (partner 1 µM)", "how_it_was_run": "(§1)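 A single step with final 0.05% Triton X-100, 1% formaldehyde and 1 ug/ml Hoechst fixed the cells and stained nuclei 5 days after treatment. Lung cancer cell lines in 1536-well plates had been treated by pin tool the day after seeding with one drug alone or a fixed anchor-drug dose plus five library-drug doses (not always all listed) in √10 steps, and nuclei were counted on 4× images. Relative viability is the ratio of nuclei in treated wells to nuclei in vehicle wells, taken as the median of duplicate plates.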"}, "[1]": {"compound": "CCn1c(-c2nonc2N)nc2c(C#CC(C)(C)O)ncc(OC[C@H]3CCCNC3)c21 + CC(=O)Nc1cccc(-n2c(=O)n(C3CC3)c(=O)c3c(Nc4ccc(I)cc4F)n(C)c(=O)c(C)c32)c1 [Trametinib] (partner 0.02 µM)", "how_it_was_run": "as §1"}, "BAM7 + Crizotinib": {"compound": "CCOC1=CC=CC=C1N=NC2=C(NN(C2=O)C3=NC(=CS3)C4=CC=CC=C4)C [BAM7] + C[C@@H](Oc1cc(-c2cnn(C3CCNCC3)c2)cnc1N)c1c(Cl)ccc(F)c1Cl [Crizotinib] (partner 1 µM)", "how_it_was_run": "as §1"}, "[2]": {"compound": "CCn1c(-c2nonc2N)nc2c(C#CC(C)(C)O)ncc(OC[C@H]3CCCNC3)c21 + CC(C)C[C@H](NC(=O)[C@H](Cc1ccccc1)NC(=O)c1cnccn1)B(O)O [Bortezomib] (partner 0.002 µM)", "how_it_was_run": "as §1"}},
  "data": [
    {"cell line": "UMC-11", "values": [
      {"measurement": "relative viability", "setting": "BAM7 + Pictilisib; first compound 0.5 µM", "result": 0.856},
      {"measurement": "relative viability", "setting": "BAM7 + Pictilisib; first compound 5 µM", "result": 0.897},
      {"measurement": "relative viability", "setting": "BAM7 + Pictilisib; first compound 15.81 µM", "result": 0.85},
      {"measurement": "relative viability", "setting": "BAM7 + Pictilisib; first compound 50 µM", "result": 0.892},
      {"measurement": "relative viability", "setting": "[1]; first compound 0.01 µM", "result": 0.765},
      {"measurement": "relative viability", "setting": "[1]; first compound 0.03162 µM", "result": 0.701},
      {"measurement": "relative viability", "setting": "[1]; first compound 0.1 µM", "result": 0.754},
      {"measurement": "relative viability", "setting": "[1]; first compound 0.3162 µM", "result": 0.754},
      {"measurement": "relative viability", "setting": "[1]; first compound 1 µM", "result": 0.618},
      {"measurement": "relative viability", "setting": "BAM7 + Crizotinib; first compound 0.5 µM", "result": 0.661},
      {"measurement": "relative viability", "setting": "BAM7 + Crizotinib; first compound 5 µM", "result": 0.786},
      {"measurement": "relative viability", "setting": "BAM7 + Crizotinib; first compound 15.81 µM", "result": 0.624},
      {"measurement": "relative viability", "setting": "BAM7 + Crizotinib; first compound 50 µM", "result": 0.636},
      {"measurement": "relative viability", "setting": "[2]; first compound 0.01 µM", "result": 0.676},
      {"measurement": "relative viability", "setting": "[2]; first compound 0.03162 µM", "result": 0.905},
      {"measurement": "relative viability", "setting": "[2]; first compound 0.1 µM", "result": 0.833},
      {"measurement": "relative viability", "setting": "[2]; first compound 0.3162 µM", "result": 0.48},
      {"measurement": "relative viability", "setting": "[2]; first compound 1 µM", "result": 0.661}
    ]}
  ]
}
